Measurements reported in patent US10609945B2, “Compositions comprising 2FL and LNnT to control food intake and growth in infants or young children” (NESTEC S.A., priority 2016, dated 2020).

Test: Relative intake (total food intake/average body weight) of IUGR rats
Format: in vivo
Conditions: diet with 4.5 wt % HMO(s), vs IUGR rats control; for relative intake, period day 22-day 29: FIG. 4A/5A; for relative intake, period day 22-day 36: FIG. 4B/5B
Description: A wide group of pregnant female rats were bought from Charles River laboratories. Some of them were submitted to food restriction of 60% during the last 10 days of gestation. Immediately after birth (d=1), the born rat pups—subjects of the experiment—were split intoseveral groups: • Normal rats (reference): no IUGR (Intrauterine growth restriction) during their mothers' pregnancy (n=20). • IUGR rats (control): […] LNnT or 2FL+LNnT (in a weight ratio 2:1), see details below. All rat pups were fed from birth (d=1) up to 57 days (d=57) based on the following protocol: • day 1-day 6: all groups of rats were nursed by dam (mothers' milk only) • day 7-day 21: all rats were nursed by dam (mothers' milk only). […] To assess the efficiency of the feeding of these rats, especially tosee whether the feeding imply a healthy growth or not, several parameters were calculated, including: • the lean mass: it corresponds to the amount of weight in the body composition that is not fat. It was measured by magnetic resonance imaging. • the relative intake: it corresponds to the total food intake divided by the average body weight of a specified period. It was assessed for several periods during the entire experiment (so the total of food ingested was measured in continuous during several days to make the calculation). Significance was assessed using the […].

Row | Compound | relative intake, period day 22-day 29 | relative intake, period day 22-day 36
1 | 2′-fucosyllactose [2FL] | significantly increased | significantly increased
2 | CC(=O)N[C@H]1[C@H](O[C@H]2[C@@H](O)[C@@H](CO)O[C@@H](O[C@H]3[C@H](O)[C@@H](O)C(O)O[C@@H]3CO)[C@@H]2O)O[C@H](CO)[C@@H](O[C@@H]2O[C@H](CO)[C@H](O)[C@H](O)[C@H]2O)[C@@H]1O (mixture of isomers) [LNnT, lacto-N-neotetraose] | significantly increased | significantly increased
